# Test results reported in paper PMC4384115, “Molecular Recognition of PTS-1 Cargo Proteins by Pex5p: Implications for Protein Mistargeting in Primary Hyperoxaluria” (Biomolecules, 2015).
# No end group written: not given here.
# Tests used:
# [1] = target: T1, Pex5p-pbd (PTS1 binding domain of human Pex5p, amino acids 235–602) (Homo sapiens, UniProt P50542); test: Isothermal titration calorimetry of AGT proteins and PTS1 nonapeptides with Pex5p-pbd; conditions: for Kd / -TΔS / ΔG / ΔH / N (binding stoichiometry) / decrease in the enthalpic penalty (more favorable enthalpic contribution) to binding compared to the natural PTS1 sequence: ITC; for Kd / -TΔS / ΔG / ΔH / N (binding stoichiometry): pH 7.4, 25 °C; for ΔCp: from the linear dependence of ΔH on temperature, 10–35 °C, pH 7.4; for N (binding stoichiometry): 20 mM Na-HEPES, 200 mM NaCl, AGT protein in cell titrated with Pex5p-pbd; for decrease in the enthalpic penalty (more favorable enthalpic contribution) to binding compared to the natural PTS1 sequence: 25 °C, full-length AGT / AGT-LRM background
# T1 construct: Pex5p-pbd; amino acids 235–602; hexa-histidine (N); made in house
# Experimental: Calorimetric measurements were carried out using a MicroCal ITC200 microcalorimeter (MicroCal, Malvern Instruments) with 205.9 μL cell volume. All the experiments were performed using 20 mM Na-HEPES (or Na-Phosphate), 200 mM NaCl, pH 7.4. […] Each titration was initiated by a 0.5 μL injection followed by 14–30 injections of 1.2–2.5 μL (spaced 150 s). Heats of dilution were determined experimentally from blank titrations. The association constants (Ka), binding enthalpy changes (ΔH), as well as the binding stoichiometries (N), were obtained by non-linear regression analysis using a one-independent-type-of-sites binding model implemented in the Origin 7.0. Software (Origin Lab Co., Northampton, MA, USA).
# [2] = target: Pex5p; conditions: PTS1 octapeptide sequences; read-out: Kd (nM), previously determined dissociation constant; cited from earlier work
# Excerpt: The protein sequence in which these octapeptides are naturally found, as well as their previously determined dissociation constant, are indicated [7].
# [3] = tested on: CHO cells; test: Confocal immunofluorescence colocalization of AGT with mitochondria (Mitotracker) in transfected CHO cells; format: cell-based, Chinese hamster; conditions: transiently transfected CHO cells, fixed 72 h after transfection; mean ± S.E.; SEM
# Experimental: (§1) Chinese hamster ovary (CHO) cells (ATTC, Rockville, MD USA) were grown in alpha-minimal essential medium (α-MEM, Lonza, Köln, Germany) supplemented with glutamine, penicillin/streptomycin and 5% fetal bovine serum. Cell transfections were performed using AGT cDNA variants (AGT-LRM or AGT-LRM-SKL) subcloned in pCIneo plasmids (Promega) with Transfast reagent (Promega, Madison, WI, USA), following manufacturer’s guidelines. After 24 h, cells were passed to plates containing 13 mm glass coverslips for immunofluorescence studies. Mitochondria in half the coverslips were labeled by incubation with Mitotracker (CMXRos, Invitrogen, Carlsbad, CA, USA) at the end of the culture. […]
# (§2) For quantitative immune-colocalization, the system was optimized to detect two fluorescent signals in one specimen: one in the green channel detector for protein of interest AGT-LRM or AGT-LRM-SKL and the other in the red channel, for either mitochondria labeled with mitotracker or peroxisomes labeled with peroxisomal membrane protein 70 (PMP70) antibody. […] Colocalization events (or the lack thereof) were analyzed quantitatively with FluoView software (Olympus, Tokyo, Japan) and ImageJ software (NIH, Bethesda, MD, USA) with the JACoP plugin, based on a global statistic approach that conducts an intensity correlation coefficient-based examination. […]
# [4] = tested on: CHO cells; test: Confocal immunofluorescence colocalization of AGT with peroxisomes (PMP70) in transfected CHO cells; format: cell-based, Chinese hamster; conditions: mean ± S.E., SEM
# Experimental: as §1, §2
# [5] = PTS1 nonapeptides (500 μM) titrated into Pex5p-pbd (20 μM), means of two independent titrations
# [6] = AGT proteins, mean ± s.d. of three independent titrations, SD
# [7] = mean ± s.d. of three independent titrations, SD
substance,measurement,setting,value
YQHCPKKKL [pAGT],Kd,[1]; [5],19000 nM
"QHCPKKKL [AGT, alanine: glyoxylate aminotransferase, reference compound]",-TΔS,[1]; [6],-13.2 ± 0.287 kcal/mol
same,Kd,[1]; [6],1400 ± 200 nM
same,ΔG,[1]; [6],-8.01 ± 0.096 kcal/mol
same,ΔH,[1]; [6],5.19 ± 0.884 kcal/mol
same,ΔCp,[1]; AGT proteins,−2.5 ± 0.4 kJ/mol·K
same,N (binding stoichiometry),[1]; [7],1.0 ± 0.1
VGSL K S KL [ACO],Kd,[2],1.6 nM
YVGSLKSKL [pACO],Kd,[1]; [5],14 nM
"VAQATC KL [HMG, reference compound]",decrease in the enthalpic penalty (more favorable enthalpic contribution) to binding compared to the natural PTS1 sequence,[1],about 16 kJ/mol
same,Kd,[2],2000 nM
YQSHPRAKL [pCRA],Kd,[1]; [5],157 nM
QHCPK S KL [AGT-SKL],-TΔS,[1]; [6],-11.8 ± 0.406 kcal/mol
same,ΔG,[1]; [6],-10.3 ± 0.22 kcal/mol
same,ΔH,[1]; [6],1.51 ± 0.19 kcal/mol
same,ΔCp,[1]; AGT proteins,−2.7 ± 0.1 kJ/mol·K
same,decrease in the enthalpic penalty (more favorable enthalpic contribution) to binding compared to the natural PTS1 sequence,[1],about 16 kJ/mol
same,N (binding stoichiometry),[1]; [7],0.8 ± 0.1
same,"Pearson Rr, AGT + Mitotracker",[3],0.47 ± 0.08
same,"% Coloc (Manders' m), AGT + PMP70","[4]; CHO cells, given as fraction, split Manders' M1 in situation 2, Manders' overlap R in situation 4",0.84 ± 0.08
same,"Pearson Rr, AGT + PMP70","[4]; transiently transfected CHO cells, fixed 72 h after transfection",0.79 ± 0.08
YQHCPKSKL [pAGT-SKL],Kd,[1]; [5],29 nM
